Measured values taken from a melting point compilation (Tetko et al.; mined from patent text by program, amines drawn as free bases though some values may be those of a salt).

First: O=C1NCCc2c(-c3cccc(Cl)c3)[nH]c3cccc1c23
Second: O=C1CCC(N2Cc3c(NCc4ccco4)cccc3C2=O)C(=O)N1 (stereo not drawn)
The melting point of the first is lower: 147 to 149 °C for the first, 248 to 250 °C for the second.

First: CC(=O)Nc1cc([N+](=O)[O-])c(F)cc1Cl
Second: CCc1cc(N)c([N+](=O)[O-])cc1CC
The melting point of the first is higher: 158 to 160 °C for the first, 63 to 65 °C for the second.

Compared with O=C(O)Cc1cccc2c(-c3ccc(Br)cc3)nccc12, O=[N+]([O-])c1ccc(-c2cc(Br)sc2-c2ccc(F)cc2)cc1 is lower in melting point: 230 to 232 °C for the first, 129 to 130 °C for the second.

Compared with CCCCCCCCN(c1c([O-])[c+](N(CCCCCCCC)C2CC(C)(C)NC(C)(C)C2)[c+]1[O-])C1CC(C)(C)NC(C)(C)C1, CCCCCCCCCCOc1cc(OCCCCCCCCCC)cc(C(=O)N(CC(=O)O)CC(=O)O)c1 is lower in melting point: 171 to 175 °C for the first, 81 to 84 °C for the second.

Compared with CCCCCCCCCCCCCCOc1ccc(CCNC(=O)Cc2cccc(CBr)c2)cc1, CCCCCC(COc1ccc(C(=O)O)cc1)c1ccc2c(c1)C(C)(C)CCS2 (racemic) is higher in melting point: 75 to 77 °C for the first, 168 to 169 °C for the second.

First: COc1ccc2c(c1)C(=O)c1ccc(OC)cc1C2(Cc1ccnc(F)c1)Cc1ccnc(F)c1
Second: O=C(NCCO)c1cccc(-c2cccc3cc(Cc4cc(F)cc(Cl)c4)sc23)n1
The melting point of the first is higher: 151 to 152 °C for the first, 139 to 140 °C for the second.

Compared with COc1cn(C(C)=O)c2ccc(F)c(Cl)c12, COc1ccc(F)c2c1C(=O)CC2 is higher in melting point: 114 to 115 °C for the first, 118 to 120 °C for the second.

First: Cc1nc(-c2cncc(F)c2)sc1N(C)C(=S)NC1CC1
Second: Cc1cc(S(=O)(=O)c2c[nH]c3ccc(F)cc23)ccc1C1CCN(C)C1 (stereo not drawn)
The melting point of the first is higher: 117 to 119 °C for the first, 86.5 to 93.5 °C for the second.

Compared with O=C(O)COc1ccc(SCc2ccc(OCc3ccc(C(F)(F)F)cc3)cc2)c2c1CCC2, CCOc1nn(-c2ccc(C(F)(F)F)cn2)cc1CCCOc1ccccc1CC(=O)O is lower in melting point: 145 °C for the first, 83 to 84 °C for the second.

First: NC(=O)OCc1cc2c(Oc3ccc(Cl)cc3)cncc2s1
Second: CCOC(=O)C[C@@H]1C(=O)N(S(=O)(=O)c2ccc(OC)cc2)C=C[C@@H]1c1ccco1
The melting point of the first is higher: 113 to 115 °C for the first, 98 to 100 °C for the second.

Compared with CC(C)(C)C(=O)OCOC(=O)c1cn(CC(F)(F)F)c2cc3c(cc2c1=O)OCO3, COc1ccc2cc([C@H](C)C(=O)NOCC(=O)O)ccc2c1 is lower in melting point: 190 to 191 °C for the first, 152 to 153 °C for the second.

First: N#Cc1nn(-c2c(Cl)cc(C(F)(F)F)cc2Cl)c(C(=O)C(F)F)c1Cl
Second: N#Cc1nn(-c2c(Cl)cc(C(F)(F)F)cc2Cl)c(NCc2ccccn2)c1SC(F)F
The melting point of the first is higher: 124 to 125 °C for the first, 117 to 120 °C for the second.

First: O=C(O)CC(=O)Nc1ccc2c(=O)[nH]c(=O)n(CCCCN3CCC(OC(c4ccccc4)c4ccccc4)CC3)c2c1
Second: Cc1nc(NC(=O)C(c2ccccc2)c2ccccc2)no1
The melting point of the first is higher: 230 to 232 °C for the first, 153 °C for the second.

Compared with Cc1nc2ccccc2c(NCC(O)CO)c1Br (stereo not drawn), O=c1[nH]c2ccccc2c(=O)cc1N(CCO)CCO is higher in melting point: 140 to 141 °C for the first, 204 to 205 °C for the second.

First: Nc1ccc(CN2CCNC(=O)C2=O)cc1
Second: COc1ccc(CNc2nc(-c3ccc(C(=O)O)cc3)nc3scc(C)c23)cc1Cl
The melting point of the first is higher: 246 to 249 °C for the first, 245 °C for the second.

First: Cc1c(Cl)ccc2c1[nH]c1c(C(=O)NO)cccc12
Second: CCOC(=O)C=Cc1cc([N+](=O)[O-])ccc1OCCCc1ccccc1
The melting point of the first is higher: 200 °C for the first, 117 to 118 °C for the second.

First: O=C1c2c(Br)ccc(Br)c2C(=O)N1CC(F)(F)C(F)(F)C(F)(F)F
Second: OC(c1cscn1)(c1cscn1)C(F)(F)F
The melting point of the first is higher: 165 °C for the first, 87 to 89 °C for the second.

Compared with COc1cc2c(cc1OC)CN(c1c(C)c(C)c3c(c1C)C(c1ccccc1)C(C)(C)O3)C2 (stereo not drawn), NC(CCOc1ccc(C(=NO)C(=O)NC2CN(C(C(=O)O)c3ccc(OCc4ccccc4)cc3)C2=O)cc1)C(=O)O (stereo not drawn) is higher in melting point: 154 to 157 °C for the first, 164 to 168 °C for the second.

First: OC(Cn1cncn1)(c1ccccc1)c1ccccc1
Second: CCC(=O)OCC(OC(=O)CC)C1OC(SC)C(OC(=O)CC)C1OC(=O)CC (stereo not drawn)
The melting point of the first is higher: 128 to 129 °C for the first, 62 to 63 °C for the second.
